Assay results from patent US10428083B2, “Heterocyclylmethyl-thienouracile as antagonists of the adenosine-A2B-receptor” (BAYER PHARMA AKTIENGESELLSCHAFT, priority 2015, dated 2019).
pIC50: −log10 of the molar value.

target: human adenosine A2b receptor (Homo sapiens (Human), UniProt P29275); assay: Cellular in vitro reporter gene test for A2b receptor activity (CHO-K1, CRE-luciferase, NECA stimulation); format: cell-based; conditions: recombinant CHO-K1 cell line, CRE-luciferase reporter, antagonism of EC50 concentration of NECA; in some cases means of several determinations, rounded to two significant figures; read-out: A2b receptor IC50
Sequence (P29275 whole entry): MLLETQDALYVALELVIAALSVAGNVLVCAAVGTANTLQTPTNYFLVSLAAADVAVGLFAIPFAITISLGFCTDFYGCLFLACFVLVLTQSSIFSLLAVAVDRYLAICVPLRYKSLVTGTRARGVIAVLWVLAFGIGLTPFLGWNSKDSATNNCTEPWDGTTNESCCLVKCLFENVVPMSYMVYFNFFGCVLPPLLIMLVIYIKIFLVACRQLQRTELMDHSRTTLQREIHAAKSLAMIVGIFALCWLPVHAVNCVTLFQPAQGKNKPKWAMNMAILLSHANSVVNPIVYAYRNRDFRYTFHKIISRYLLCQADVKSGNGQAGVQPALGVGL
Method in brief: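 CHO-K1 cells with CRE-driven luciferase; antagonists co-incubated with NECA at its EC50, determined in a pre-experiment on each test day. Luciferase read by luminescence 3 h after NECA addition.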

Row | Compound | pIC50
1 | COC(C)Cn1c(=O)c2c(C)c(CN3CCNC3=NC#N)sc2n(CCC(F)(F)F)c1=O (single isomer, unassigned) [Example 456, [1-{[3-(2-Methoxypropyl)-5-methyl-2,4-dioxo-1-(3,3,3-trifluoropropyl)-1,2,3,4-tetrahydrothieno[2,3-d]pyrimidin-6-yl]methyl}imidazolidin-2-ylidene]cyanamide] | 7.82
2 | COC(=O)N=C1NCCN1Cc1sc2c(c1C)c(=O)n(C(C)C)c(=O)n2CC1CCO1 (single isomer, unassigned) [Example 457, Methyl [1-{[3-isopropyl-5-methyl-1-(oxetan-2-ylmethyl)-2,4-dioxo-1,2,3,4-tetrahydrothieno[2,3-d]pyrimidin-6-yl]methyl}imidazolidin-2-ylidene]carbamate] | 8.15
3 | COC(=O)N=C1NCCN1Cc1sc2c(c1C)c(=O)n(C(C)C)c(=O)n2CC1CCO1 (single isomer, unassigned) [Example 458, Methyl [1-{[3-isopropyl-5-methyl-1-(oxetan-2-ylmethyl)-2,4-dioxo-1,2,3,4-tetrahydrothieno[2,3-d]pyrimidin-6-yl]methyl}imidazolidin-2-ylidene]carbamate] | 7.47
4 | COC(=O)N=C1NCCN1Cc1sc2c(c1C)c(=O)n(C(C)C)c(=O)n2CC1CCCO1 (single isomer, unassigned) [Example 459, Methyl [1-{[3-isopropyl-5-methyl-2,4-dioxo-1-(tetrahydrofuran-2-ylmethyl)-1,2,3,4-tetrahydrothieno[2,3-d]pyrimidin-6-yl]methyl}imidazolidin-2-ylidene]carbamate] | 8.31
5 | COC(=O)N=C1NCCN1Cc1sc2c(c1C)c(=O)n(C(C)C)c(=O)n2CC1CCCO1 (single isomer, unassigned) [Example 460, Methyl [1-{[3-isopropyl-5-methyl-2,4-dioxo-1-(tetrahydrofuran-2-ylmethyl)-1,2,3,4-tetrahydrothieno[2,3-d]pyrimidin-6-yl]methyl}imidazolidin-2-ylidene]carbamate] | 7.66
6 | COC(=O)N=C1NCCN1Cc1sc2c(c1C)c(=O)n(CC(C)(C)C)c(=O)n2CC1CCCO1 (single isomer, unassigned) [Example 464, Methyl [1-{[3-(2,2-dimethylpropyl)-5-methyl-2,4-dioxo-1-(tetrahydrofuran-2-ylmethyl)-1,2,3,4-tetrahydrothieno[2,3-d]pyrimidin-6-yl]methyl}imidazolidin-2-ylidene]carbamate] | 8.00
7 | COC(=O)N=C1NCCN1Cc1sc2c(c1C)c(=O)n(CC(C)(C)C)c(=O)n2CC1CCCO1 (single isomer, unassigned) [Example 465, Methyl [1-{[3-(2,2-dimethylpropyl)-5-methyl-2,4-dioxo-1-(tetrahydrofuran-2-ylmethyl)-1,2,3,4-tetrahydrothieno[2,3-d]pyrimidin-6-yl]methyl}imidazolidin-2-ylidene]carbamate] | 7.89
8 | COC(=O)N=C1NCCN1Cc1sc2c(c1C)c(=O)n(CC(F)(F)F)c(=O)n2CC1CCO1 (single isomer, unassigned) [Example 466, Methyl [1-{[5-methyl-1-(oxetan-2-ylmethyl)-2,4-dioxo-3-(2,2,2-trifluoroethyl)-1,2,3,4-tetrahydrothieno[2,3-d]pyrimidin-6-yl]methyl}imidazolidin-2-ylidene]carbamate] | 8.18
9 | COC(=O)N=C1NCCN1Cc1sc2c(c1C)c(=O)n(CC(F)(F)F)c(=O)n2CC1CCO1 (single isomer, unassigned) [Example 467, Methyl [1-{[5-methyl-1-(oxetan-2-ylmethyl)-2,4-dioxo-3-(2,2,2-trifluoroethyl)-1,2,3,4-tetrahydrothieno[2,3-d]pyrimidin-6-yl]methyl}imidazolidin-2-ylidene]carbamate] | 7.52
10 | COC(=O)N=C1NCCN1Cc1sc2c(c1C)c(=O)n(CC(F)(F)F)c(=O)n2CC1CCCO1 (single isomer, unassigned) [Example 468, Methyl [1-{[5-methyl-2,4-dioxo-1-(tetrahydrofuran-2-ylmethyl)-3-(2,2,2-trifluoroethyl)-1,2,3,4-tetrahydrothieno[2,3-d]pyrimidin-6-yl]methyl}imidazolidin-2-ylidene]carbamate] | 8.21
11 | COC(=O)N=C1NCCN1Cc1sc2c(c1C)c(=O)n(CC(F)(F)F)c(=O)n2CC1CCCO1 (single isomer, unassigned) [Example 469, Methyl [1-{[5-methyl-2,4-dioxo-1-(tetrahydrofuran-2-ylmethyl)-3-(2,2,2-trifluoroethyl)-1,2,3,4-tetrahydrothieno[2,3-d]pyrimidin-6-yl]methyl}imidazolidin-2-ylidene]carbamate] | 8.06
12 | COC(=O)N=C1NCCN1Cc1sc2c(c1C)c(=O)n(CC(C)OC)c(=O)n2CCC(F)(F)F (single isomer, unassigned) [Example 473, Methyl [1-{[3-(2-methoxypropyl)-5-methyl-2,4-dioxo-1-(3,3,3-trifluoropropyl)-1,2,3,4-tetrahydrothieno[2,3-d]pyrimidin-6-yl]methyl}imidazolidin-2-ylidene]carbamate] | 8.47
13 | COC(=O)N=C1NCCN1Cc1sc2c(c1C)c(=O)n(CC(C)OC)c(=O)n2CCC(F)(F)F (single isomer, unassigned) [Example 474, Methyl [1-{[3-(2-methoxypropyl)-5-methyl-2,4-dioxo-1-(3,3,3-trifluoropropyl)-1,2,3,4-tetrahydrothieno[2,3-d]pyrimidin-6-yl]methyl}imidazolidin-2-ylidene]carbamate] | 8.25
14 | CCn1c(=O)c2c(C)c(CN3CCNC(=O)C3=O)sc2n(CC2CCCO2)c1=O (single isomer, unassigned) [Example 476, 6-[(2,3-Dioxopiperazin-1-yl)methyl]-3-ethyl-5-methyl-1-(tetrahydrofuran-2-ylmethyl)thieno[2,3-d]pyrimidine-2,4(1H,3H)-dione] | 6.85
15 | CCn1c(=O)c2c(C)c(CN3CCNC(=O)C3=O)sc2n(CC2CCCO2)c1=O (single isomer, unassigned) [Example 477, 6-[(2,3-Dioxopiperazin-1-yl)methyl]-3-ethyl-5-methyl-1-(tetrahydrofuran-2-ylmethyl)thieno[2,3-d]pyrimidine-2,4(1H,3H)-dione] | 6.57
16 | Cc1c(CN2CCNC(=O)C2=O)sc2c1c(=O)n(C(C)C)c(=O)n2CC1CCCO1 (single isomer, unassigned) [Example 481, 6-[(2,3-Dioxopiperazin-1-yl)methyl]-3-isopropyl-5-methyl-1-(tetrahydrofuran-2-ylmethyl)thieno[2,3-d]pyrimidine-2,4(1H,3H)-dione] | 6.85
17 | Cc1c(CN2CCNC(=O)C2=O)sc2c1c(=O)n(C(C)C)c(=O)n2CC1CCCO1 (single isomer, unassigned) [Example 482, 6-[(2,3-Dioxopiperazin-1-yl)methyl]-3-isopropyl-5-methyl-1-(tetrahydrofuran-2-ylmethyl)thieno[2,3-d]pyrimidine-2,4(1H,3H)-dione] | 6.39
18 | Cc1c(CN2CCNC(=O)C2=O)sc2c1c(=O)n(CC(C)(C)C)c(=O)n2CC1CCCO1 (single isomer, unassigned) [Example 484, 3-(2,2-Dimethylpropyl)-6-[(2,3-dioxopiperazin-1-yl)methyl]-5-methyl-1-(tetrahydrofuran-2-ylmethyl)thieno[2,3-d]pyrimidine-2,4(1H,3H)-dione] | 7.17
19 | Cc1c(CN2CCNC(=O)C2=O)sc2c1c(=O)n(CC(C)(C)C)c(=O)n2CC1CCCO1 (single isomer, unassigned) [Example 485, 3-(2,2-Dimethylpropyl)-6-[(2,3-dioxopiperazin-1-yl)methyl]-5-methyl-1-(tetrahydrofuran-2-ylmethyl)thieno[2,3-d]pyrimidine-2,4(1H,3H)-dione] | 7.28
20 | Cc1c(CN2CCNC(=O)C2=O)sc2c1c(=O)n(CC(F)(F)F)c(=O)n2CC1CCCO1 (single isomer, unassigned) [Example 488, 6-[(2,3-Dioxopiperazin-1-yl)methyl]-5-methyl-1-(tetrahydrofuran-2-ylmethyl)-3-(2,2,2-trifluoroethyl)thieno[2,3-d]pyrimidine-2,4(1H,3H)-dione] | 7.17
21 | Cc1c(CN2CCNC(=O)C2=O)sc2c1c(=O)n(CC(F)(F)F)c(=O)n2CC1CCCO1 (single isomer, unassigned) [Example 489, 6-[(2,3-Dioxopiperazin-1-yl)methyl]-5-methyl-1-(tetrahydrofuran-2-ylmethyl)-3-(2,2,2-trifluoroethyl)thieno[2,3-d]pyrimidine-2,4(1H,3H)-dione] | 7.57
22 | COC(C)Cn1c(=O)c2c(C)c(CN3CCNC(=O)C3=O)sc2n(CCC(F)(F)F)c1=O (single isomer, unassigned) [Example 494, 6-[(2,3-Dioxopiperazin-1-yl)methyl]-3-(2-methoxypropyl)-5-methyl-1-(3,3,3-trifluoropropyl)thieno[2,3-d]pyrimidine-2,4(1H,3H)-dione] | 7.70
23 | COC(C)Cn1c(=O)c2c(C)c(CN3CCNC(=O)C3=O)sc2n(CCC(F)(F)F)c1=O (single isomer, unassigned) [Example 495, 6-[(2,3-Dioxopiperazin-1-yl)methyl]-3-(2-methoxypropyl)-5-methyl-1-(3,3,3-trifluoropropyl)thieno[2,3-d]pyrimidine-2,4(1H,3H)-dione] | 7.24
24 | COCCn1c(=O)n(C(C)C(F)(F)F)c(=O)c2c(C)c(CN3CCNC3=O)sc21 (single isomer, unassigned) [Example 498, 1-(2-Methoxyethyl)-5-methyl-6-[(2-oxoimidazolidin-1-yl)methyl]-3-(1,1,1-trifluoropropan-2-yl)thieno[2,3-d]pyrimidine-2,4(1H,3H)-dione] | 7.10
25 | COCCn1c(=O)n(C(C)C(F)(F)F)c(=O)c2c(C)c(CN3CCNC3=O)sc21 (single isomer, unassigned) [Example 499, 1-(2-Methoxyethyl)-5-methyl-6-[(2-oxoimidazolidin-1-yl)methyl]-3-(1,1,1-trifluoropropan-2-yl)thieno[2,3-d]pyrimidine-2,4(1H,3H)-dione] | 6.64
